Results on eight compounds are retold here after patent US8957086B2, “Compounds and methods of treating brain disorders” (The Board of Trustees of the University of Illinois, priority 2010, dated 2015).

Data set [1] in a line: Stability in phosphate buffer (pH 7.4) monitored using HPLC. Format: physicochemical. Particulars: pH 7.4, HPLC. The text has this:
The stability of compounds of structural formula (II) in phosphate buffer (pH 7.4) was monitored using HPLC.

Data set [2] relates to primary rat cortical neuron cultures. In words: Neuroprotection in primary rat cortical neuron cultures subjected to oxygen-glucose deprivation (OGD), MTT and LDH. The settings on record: primary cultured rat cortical neurons, OGD 2 h + 24 h reoxygenation, 50 μM. It is filed as cell-based. The protocol:
Neuroprotection by compounds of structural formula (I) in neurons using oxygen-glucose deprivation (OGD) followed by recovery for 24 hours in primary rat cortical neuron cultures, measured by LDH release and MTT viability was determined (FIG. 1).
Test compounds are compared to vehicle controls and the known neuroprotective agent CMZ. DMSO is dimethyl sulfoxide. Neuroprotection is represented by (i) a high cell viability relative to control as measured by the MIT assay and (ii) a low LDH activity as measured by assay of LDH. The abscissa in FIGS. 1A and 1B identify the compounds tested by GN number. The structures of AR-OH (also referred to as #00) and AR-N3 (also referred to as #9 or GN-9) are provided above. The structure of AR (also referred to as #10) and CMZ are as follows: […]
FIG. 1A illustrates the evaluation of neuroprotection in primary neurons subject to transient OGD assayed by MTT. […] Cell viability was measured 24 hours after reperfusion by MTT assay. Cell viability percentage was calculated relative to 100% protection from CMZ against OGD-reperfusion injury. […]
FIG. 1B illustrates the evaluation of neuroprotection in primary rat neurons subject to transient OGD assayed by LDH. […] Cell viability was measured 24 hours after reperusion by […]. Cell viability percentage was calculated relative to 100% cytoxicity from OGD-reperfusion in the presence of vehicle (DMSO). […]

For data set [3], the system named is primary rat glial cultures. In words: Attenuation of inflammatory response (nitrite production, Griess assay) in LPS-treated primary rat glial cultures. It is filed as cell-based. The settings on record: primary rat glial cells, LPS/OGD, nitrite by Griess assay. As to the method:
Attenuation of cytokine and inflammatory response by compounds of structural formula (I) were measured by induction of NOS reflected by inhibition of nitrite production in LPS/IFNγ treated primary rat glial cultures.
Primary mixed glia cultures were obtained as described previously (Vairano et al., 2002). Briefly, 1-2 day old Sprague Dawley rat pups were used to prepare primary mixed glial cultures. Cortices were dissected and meninges were removed. Tissues were cut into small pieces and transferred into PBS (without Ca^2+ and Mg^2+) containing 0.125% Trypsin and DNAse 35500 KU/ml, then incubated at 37° C. for 20 min. The cells were dissociated mechanically resuspended in DMEM (10% FBS), then grown in a T-75 flask. After 11-13 days in culture, the cells were replated at 2×10^5 cells/cm^2 in 96-well plates. Cells were used the next day.
Primary cultured cortical glia were incubated with LPS ([…]) in deoxygenated, glucose-free solution, pH 7.4, containing the following (in mM): NaCl 116, CaCl2 1.8, MgSO4 0.8, KCl 5.4, NaH2PO4 1, NaHCO3 14.7, HEPES 10. The cells were placed in a humidified 37° C. incubator (95% N2, 5% CO2) for 2 hours, then conditioned DMEM media containing LPS or PBS were given back to the cells. The tested compounds ([…]) or MAPK inhibitor (SB203580, […]) were present during and after the OGD. […] Cell viability was measured later by MTT assay. […]

The next data set relates to scopolamine treated mice. The experiment in a line: Step through passive avoidance (STPA) in scopolamine treated mice. Format: in vivo. The settings on record: i.p. The text has this:
The scopolamine treatment results in mice having an attenuated cognitive function. STPA (step through passive avoidance task) is widely used to test long-term memory. The STPA apparatus consists of a two-compartment acrylic box with an illuminated side (15×12×12 cm) connected to a dark side (15×12×12 cm) by a vertical door. The dark side is equipped with an electric grid floor. During the habituation, animals were habituated to the normal behavior of rapidly translocating to the dark from the light side, where they were initially placed. Habituation trials are continued until latency of entering the dark side for each animal is less than 30 seconds. Animals that cannot pass this screening phase are excluded from the study. During the training, animals were trained by receiving an aversive electrical shock (0.5 mA, 2 sec), triggered by entry to the dark compartment, until the latency of entering the dark side reach 300 seconds. At 24 and 72 hours post-training, the animals again are individually placed in the light compartment and the latency to enter the dark compartment, without shock stimulus, is recorded. Statistical analysis of the latency data was performed with one-way ANOVA followed by Bonferroni multiple comparison test. For STPA tests using naïve animals, each animal was administered two ip injections. […]

Data set [4] is described as follows: Brain penetration in WT mice after i.p. injection, LC-MS (MRM). The settings on record: i.p. 1 mg/kg, S/N ratio. It is filed as in vivo. As to the method:
Compounds of structural formula (II), i.e., GN-29 and GN-205, were tested for an ability to penetrate the brain. WT mice were given an i.p. injection at a dose of 1 mg/kg, which is equivalent to transgenic mice studies. The presence of drugs in brain tissue was measured by LC-MS using MRM methods.

The test system of another data set is TNF-α. In words: TNF-α ELISA on cortical/hippocampal protein homogenates of LaFerla 3×Tg AD mice. It is filed as in vivo. Particulars: 11 week treatment. The text has this: (§1) Amyloid load also was reduced by drug treatment (data not shown).
Another data set relates to LaFerla 3×Tg AD Mice. The experiment in a line: STPA latency in LaFerla 3×Tg AD mice after 11 week treatment. It is filed as in vivo. Particulars: for latency after 24 h in STPA: 11 week treatment.
The subject of data set [5] is CREB phosphorylated at serine 133. The experiment in a line: CREB phosphorylated at serine 133 in LaFerla 3×Tg AD mice. Format: in vivo. Particulars: 11 week treatment.
From the text: as §1

In data set [6] the test system is primary cortical cultures treated with human Aβ1-42. The experiment in a line: Neuroprotection in primary neurons treated with Aβ42 oligomers, with picrotoxin preincubation (MTT, LDH). It is filed as cell-based. Particulars: 100 μM picrotoxin 1 h preincubation, test compounds 50 μM, Aβ1-42 250 nM, 5 days. The protocol:
FIGS. 3A and 3B illustrate neuroprotection in response to amyloid neurotoxicity afforded by compounds of structural formula (I). FIGS. 3A and 3B show neuroprotection in primary neurons treated with Aβ42. In particular, primary cortical cultures at 10-11 DIV were preincubated with 100 μM of picrotoxin for one hour, then perfused with test compounds at 50 μM. Soluble oligomers of human Aβ1-42 then were added at a physiologically relevant concentration of 250 nM. Cultures then were incubated for 5 days, after which time MTT and LDH assays were performed. Results were normalized to untreated DMSO and treated DMSO and statistical analysis was performed with ANOVA, with post-hoc Dunnet's MCT comparing to untreated DMSO, […], ***=p<0.001. Picrotoxin acts as a noncompetitive antagonist for the GABAA receptor chloride channels. It is therefore a channel blocker rather than a receptor antagonist.

“Also recorded” adds a separate entry of the source.

For `Cc1ncsc1C(OCCOCCO[N+](=O)[O-])c1ccccc1` (stereo not shown) [GM-30], in [1], the “stability in phosphate buffer” value is “excellent stability”.
Consider `Cc1ncsc1C(c1ccccc1)n1cc(-c2cccnc2)nn1` (stereo not shown) [GN-12], for which the neuroprotection entry in data set [2] is “substantial neuroprotection; also recorded: superior neuroprotective and anti-neuroinflammatory activities”. In data set [3], the “attenuation of inflammatory response” value was “attenuation of inflammatory response; also recorded: superior neuroprotective and anti-neuroinflammatory activities”. In the data set with scopolamine treated mice, the “reversal of cognition deficit (STPA)” value is recorded as “reverse a cognition deficit”.
For `Cc1ncsc1C(CO[N+](=O)[O-])c1ccccc1` (stereo not shown) [GN-29], the “presence in brain tissue (bioavailability in the brain)” value in data set [4] was “highly bioavailable in the brain”. The “levels of TNF-α” value with TNF-α is recorded as 1.70±0.09 μg/mg protein. Further, the “latency after 24 h in STPA” value with LaFerla 3×Tg AD Mice worked out at 277 ± 14 s. Moreover, the “cognitive deficit in the transgenic mouse model” value with LaFerla 3×Tg AD Mice (in words) was “reverses a cognitive deficit”. Besides, in data set [5], the “levels of CREB phosphorylated at serine 133” value worked out at 1.2±0.16 units/mg protein.
In the case of `Cc1ncsc1C(NC(=O)C1(CO[N+](=O)[O-])CC1)c1ccccc1` (stereo not shown) [GN-44], the “stability in phosphate buffer” value in data set [1] is “excellent stability”.
The same measure, in the same setting: to `Cc1ncsc1C(NC(=O)OCCCCO[N+](=O)[O-])c1ccccc1` (stereo not shown) [GN-203] belongs “excellent stability”.
Turning to `Cc1ncsc1C(CO[N+](=O)[O-])n1cc(-c2cccnc2)nn1` (stereo not shown) [GN-205], in data set [4], the “presence in brain tissue (bioavailability in the brain)” value is reported as “highly bioavailable in the brain”.
Regarding `Cc1ncsc1CC[N+](=O)[O-]` [GT-1061, reference compound], the “levels of TNF-α” value with TNF-α is listed as 2.18±0.34 μg/mg protein. Further, in the data set with LaFerla 3×Tg AD Mice, the “latency after 24 h in STPA” value was 248 ± 35 s. The “levels of CREB phosphorylated at serine 133” value in [5] was determined as 1.07±0.11 units/mg protein.
picrotoxin: the “effect of picrotoxin on neuroprotection by test compounds” value in data set [6] is on record as “blocks the neuroprotective actions of the test compounds”.
